Measured values published in PubChem BioAssay AID248 (DTP/NCI, 2004).
Values joined by “and” are separate entries in the source; they are usually repeats but may differ in a detail not shown here. Identical values can stand only once. Toxic doses and inconclusive results are not listed.

Test system: L1210 leukemia ip in BDF1 mice, survival T/C
Test: NCI In Vivo Anticancer Drug Screen. Data for tumor model L1210 Leukemia (intraperitoneal) in B6D2F1 (BDF1) mice
Conditions: endpoint: mean survival time, higher = longer survival
Procedure, shortened: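 Tumor was transplanted into mice, which were then dosed with test compound or vehicle alone. Survival was recorded for each group, and the treated figure was expressed relative to the control figure.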

[1] = dose: 100.0 mg/kg/injection, schedule: Q04DX003 (ip), vehicle: saline
[2] = dose: 200.0 mg/kg/injection, schedule: Q04DX003 (ip), vehicle: saline
[3] = dose: 400.0 mg/kg/injection, schedule: Q04DX003 (ip), vehicle: saline
[4] = dose: 100.0 mg/kg/injection, schedule: Q01DX001 (ip), vehicle: saline with Tween-80

With `CCOP(=O)(NN(C)C)OCC` the T/C (dose: 12.5 mg/kg/injection, schedule: Q01DX009 (ip), vehicle: saline) was 107 % of control, the T/C (dose: 12.5 mg/kg/injection, schedule: Q04DX003 (ip), vehicle: saline) was 96 % of control and the T/C (dose: 25.0 mg/kg/injection, schedule: Q01DX009 (ip), vehicle: saline) was 104 % of control. The T/C (dose: 25.0 mg/kg/injection, schedule: Q04DX003 (ip), vehicle: saline) was 104 % of control, the T/C (dose: 50.0 mg/kg/injection, schedule: Q01DX009 (ip), vehicle: saline) was 102 % of control and the T/C (dose: 50.0 mg/kg/injection, schedule: Q04DX003 (ip), vehicle: saline) was 107 % of control. The T/C (dose: 100.0 mg/kg/injection, schedule: Q01DX009 (ip), vehicle: saline) was 102 % of control, the T/C [1] was 101 % of control and the T/C (dose: 200.0 mg/kg/injection, schedule: Q01DX009 (ip), vehicle: saline) was 95 % of control. The T/C [2] was 106 % of control, the T/C (dose: 400.0 mg/kg/injection, schedule: Q01DX009 (ip), vehicle: saline) was 112 % of control and the T/C [3] was 96 % of control.
In the case of `CC(=O)C(C(C)=O)c1cc(NS(=O)(=O)N(C)C)ccc1NS(=O)(=O)N(C)C`, the T/C (dose: 75.0 mg/kg/injection, schedule: Q04DX003 (ip), vehicle: Klucel (hydroxypropylcellulose) (HPC)) is reported as 89 % of control, the T/C (dose: 150.0 mg/kg/injection, schedule: Q04DX003 (ip), vehicle: Klucel (hydroxypropylcellulose) (HPC)) is reported as 108 % of control and the T/C (dose: 300.0 mg/kg/injection, schedule: Q04DX003 (ip), vehicle: Klucel (hydroxypropylcellulose) (HPC)) is reported as 96 % of control.
`Brc1cscc1Cc1ccccc1` was tested, and the T/C (dose: 50.0 mg/kg/injection, schedule: Q01DX009 (ip), vehicle: saline with Tween-80) was 95 % of control, the T/C (dose: 100.0 mg/kg/injection, schedule: Q01DX009 (ip), vehicle: saline with Tween-80) was 95 % of control and the T/C (dose: 200.0 mg/kg/injection, schedule: Q01DX009 (ip), vehicle: saline with Tween-80) was 95 % of control.
With `O=S1Cc2cc3ccccc3cc2C1` the T/C [4] was 102 % of control, the T/C (dose: 200.0 mg/kg/injection, schedule: Q01DX001 (ip), vehicle: saline with Tween-80) was 103 % of control and the T/C (dose: 400.0 mg/kg/injection, schedule: Q01DX001 (ip), vehicle: saline with Tween-80) was 108 % of control.
For `CNC(=O)c1cc(NC(=O)Nc2ccc(C3=NCCN3)cc2)cc(NC(=O)Nc2ccc(C3=NCCN3)cc2)c1`, the T/C (dose: 15.0 mg/kg/injection, schedule: Q01DX Z (ip), vehicle: saline) was 122 % of control, the T/C (dose: 60.0 mg/kg/injection, schedule: Q01DX Z (ip), vehicle: saline) was 216 % of control and the T/C (dose: 60.0 mg/kg/injection, schedule: Q01DX Z (oral), vehicle: saline) was 103 % of control. The T/C (dose: 120.0 mg/kg/injection, schedule: Q01DX Z (ip), vehicle: saline) was 114 % of control, the T/C (dose: 120.0 mg/kg/injection, schedule: Q01DX Z (oral), vehicle: saline) was 98 % of control and the T/C (dose: 240.0 mg/kg/injection, schedule: Q01DX Z (oral), vehicle: saline) was 106 % of control. The T/C (dose: 480.0 mg/kg/injection, schedule: Q01DX Z (oral), vehicle: saline) was 93 % of control.
With `CC1(C)C2CCC1(C)C(CO)C2` (stereo not drawn) the T/C (dose: 100.0 mg/kg/injection, schedule: Q04DX003 (ip), vehicle: other) was 100 % of control and the T/C (dose: 200.0 mg/kg/injection, schedule: Q04DX003 (ip), vehicle: other) was 102 % of control.
`CCN1C=C/C(=C\C=C/c2cc[n+](CC)c3ccccc23)c2ccccc21` was tested, and the T/C (dose: 0.05 mg/kg/injection, schedule: Q01DX Z (ip), vehicle: methylcellulose (MC)) was 96 % of control, the T/C (dose: 0.06 mg/kg/injection, schedule: Q01DX Z (ip), vehicle: methylcellulose (MC)) was 106 % of control and 121 % of control and the T/C (dose: 0.08 mg/kg/injection, schedule: Q01DX Z (ip), vehicle: methylcellulose (MC)) was 104 % of control. For the same molecule, the T/C (dose: 0.1 mg/kg/injection, schedule: Q01DX Z (ip), vehicle: methylcellulose (MC)) was 107 % of control, the T/C (dose: 0.11 mg/kg/injection, schedule: Q01DX Z (ip), vehicle: methylcellulose (MC)) was 121 % of control and the T/C (dose: 0.15 mg/kg/injection, schedule: Q01DX Z (ip), vehicle: methylcellulose (MC)) was 119 % of control. The T/C (dose: 0.3 mg/kg/injection, schedule: Q01DX Z (ip), vehicle: methylcellulose (MC)) was 113 % of control and 120 % of control and 121 % of control, the T/C (dose: 0.33 mg/kg/injection, schedule: Q01DX009 (ip), vehicle: saline with Tween-80) was 118 % of control and the T/C (dose: 0.33 mg/kg/injection, schedule: Q03HX024 (ip), vehicle: saline with Tween-80) was 109 % of control. For the same molecule, the T/C (dose: 0.4 mg/kg/injection, schedule: Q01DX Z (ip), vehicle: methylcellulose (MC)) was 112 % of control, the T/C (dose: 0.44 mg/kg/injection, schedule: Q01DX009 (ip), vehicle: saline with Tween-80) was 121 % of control and the T/C (dose: 0.48 mg/kg/injection, schedule: Q01DX009 (ip), vehicle: saline with Tween-80) was 112 % of control. For the same molecule, the T/C (dose: 0.5 mg/kg/injection, schedule: Q01DX009 (ip), vehicle: saline) was 101 % of control, the T/C (dose: 0.5 mg/kg/injection, schedule: Q04DX003 (ip), vehicle: saline sonified) was 107 % of control and the T/C (dose: 0.67 mg/kg/injection, schedule: Q01DX001 (ip), vehicle: saline with Tween-80) was 105 % of control. The T/C (dose: 0.67 mg/kg/injection, schedule: Q04DX003 (ip), vehicle: saline with Tween-80) was 105 % of control, the T/C (dose: 0.7 mg/kg/injection, schedule: Q01DX Z (ip), vehicle: methylcellulose (MC)) was 96 % of control and the T/C (dose: 0.74 mg/kg/injection, schedule: Q01DX009 (ip), vehicle: saline with Tween-80) was 114 % of control and 118 % of control. The T/C (dose: 1.0 mg/kg/injection, schedule: Q01DX001 (ip), vehicle: saline with Tween-80) was 105 % of control, the T/C (dose: 1.0 mg/kg/injection, schedule: Q01DX009 (ip), vehicle: saline) was 107 % of control and the T/C (dose: 1.0 mg/kg/injection, schedule: Q01DX Z (ip), vehicle: methylcellulose (MC)) was 100 % of control. The T/C (dose: 1.0 mg/kg/injection, schedule: Q04DX003 (ip), vehicle: saline sonified) was 110 % of control, the T/C (dose: 1.1 mg/kg/injection, schedule: Q01DX009 (ip), vehicle: saline with Tween-80) was 105 % of control and the T/C (dose: 1.5 mg/kg/injection, schedule: Q01DX001 (ip), vehicle: saline with Tween-80) was 112 % of control. For the same molecule, the T/C (dose: 1.5 mg/kg/injection, schedule: Q01DX Z (ip), vehicle: methylcellulose (MC)) was 108 % of control, the T/C (dose: 1.5 mg/kg/injection, schedule: Q04DX003 (ip), vehicle: saline with Tween-80) was 113 % of control and the T/C (dose: 2.0 mg/kg/injection, schedule: Q04DX003 (ip), vehicle: saline sonified) was 118 % of control. For the same molecule, the T/C (dose: 2.2 mg/kg/injection, schedule: Q01DX001 (ip), vehicle: saline with Tween-80) was 110 % of control, the T/C (dose: 2.2 mg/kg/injection, schedule: Q04DX003 (ip), vehicle: saline with Tween-80) was 98 % of control and the T/C (dose: 3.3 mg/kg/injection, schedule: Q01DX001 (ip), vehicle: saline with Tween-80) was 100 % of control and 88 % of control. The T/C (dose: 7.4 mg/kg/injection, schedule: Q01DX001 (ip), vehicle: saline with Tween-80) was 105 % of control, the T/C (dose: 67.0 micrograms/kg/injection, schedule: Q03HX024 (ip), vehicle: saline with Tween-80) was 102 % of control and the T/C (dose: 100.0 micrograms/kg/injection, schedule: Q03HX024 (ip), vehicle: saline with Tween-80) was 101 % of control. The T/C (dose: 150.0 micrograms/kg/injection, schedule: Q03HX024 (ip), vehicle: saline with Tween-80) was 104 % of control, the T/C (dose: 220.0 micrograms/kg/injection, schedule: Q03HX024 (ip), vehicle: saline with Tween-80) was 97 % of control and the T/C (dose: 330.0 micrograms/kg/injection, schedule: Q03HX024 (ip), vehicle: saline with Tween-80) was 102 % of control.
In the case of `Cc1nc(N)[nH]c(=O)c1CCCNc1ccc(F)cc1`, the T/C (dose: 25.0 mg/kg/injection, schedule: Q01DX001 (ip), vehicle: saline with Tween-80) is reported as 95 % of control, the T/C (dose: 50.0 mg/kg/injection, schedule: Q01DX001 (ip), vehicle: saline with Tween-80) is reported as 93 % of control and the T/C [4] is reported as 92 % of control.
`CC1(C)C2CC3C(=CCCC3C(=O)O)C1C2` (stereo not drawn) was tested, and the T/C (dose: 100.0 mg/kg/injection, schedule: Q04DX003 (ip), vehicle: Klucel (hydroxypropylcellulose) (HPC)) was 97 % of control, the T/C (dose: 200.0 mg/kg/injection, schedule: Q04DX003 (ip), vehicle: Klucel (hydroxypropylcellulose) (HPC)) was 103 % of control and the T/C (dose: 400.0 mg/kg/injection, schedule: Q04DX003 (ip), vehicle: Klucel (hydroxypropylcellulose) (HPC)) was 95 % of control.
In the case of `CCOC(=O)C(C#N)=C([SH2+])[SH2+].CCOC(=O)C(C#N)=C([SH2+])[SH2+].[Cu+2].c1ccc(C[P+](c2ccccc2)(c2ccccc2)c2ccccc2)cc1`, the T/C (dose: 100.0 mg/kg/injection, schedule: Q01DX001 (ip), vehicle: saline) is reported as 92 % of control, the T/C [1] is reported as 102 % of control and the T/C (dose: 200.0 mg/kg/injection, schedule: Q01DX001 (ip), vehicle: saline) is reported as 87 % of control. For the same molecule, the T/C [2] was 97 % of control, the T/C (dose: 400.0 mg/kg/injection, schedule: Q01DX001 (ip), vehicle: saline) was 89 % of control and the T/C [3] was 91 % of control.
